Measured values reported in paper PMC4167230, “Hydrophobic Substituents of the Phenylmethylsulfamide Moiety Can Be Used for the Development of New Selective Carbonic Anhydrase Inhibitors” (BioMed Research International, 2014).

How the values were obtained:
Experiment in all cases: stopped-flow CO2 hydration assay
Format in all cases: biochemical
hCA XII = biological target: T1, hCA XII (Homo sapiens, UniProt O43570); settings: read-out: K I (nM)∗ / hCA XII
T1 construct: gene CA12; transmembrane isoform
T1 sequence (O43570 25-354): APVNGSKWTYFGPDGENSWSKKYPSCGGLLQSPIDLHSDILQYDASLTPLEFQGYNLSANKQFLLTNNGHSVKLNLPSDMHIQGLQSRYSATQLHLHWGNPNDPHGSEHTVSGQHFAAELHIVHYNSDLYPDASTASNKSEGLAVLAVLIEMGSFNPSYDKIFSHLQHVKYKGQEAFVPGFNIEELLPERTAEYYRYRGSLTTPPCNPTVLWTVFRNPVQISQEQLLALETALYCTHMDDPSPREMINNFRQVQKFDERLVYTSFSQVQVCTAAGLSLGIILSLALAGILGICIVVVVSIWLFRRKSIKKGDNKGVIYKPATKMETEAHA
Description: stopped-flow CO2 hydration assay on hCA XII

hCA I = biological target: T2, hCA I (Homo sapiens, UniProt P00915); settings: read-out: K I (nM)∗ / hCA I
T2 construct: gene CA1; cytosolic isoform
T2 sequence (P00915 2-261): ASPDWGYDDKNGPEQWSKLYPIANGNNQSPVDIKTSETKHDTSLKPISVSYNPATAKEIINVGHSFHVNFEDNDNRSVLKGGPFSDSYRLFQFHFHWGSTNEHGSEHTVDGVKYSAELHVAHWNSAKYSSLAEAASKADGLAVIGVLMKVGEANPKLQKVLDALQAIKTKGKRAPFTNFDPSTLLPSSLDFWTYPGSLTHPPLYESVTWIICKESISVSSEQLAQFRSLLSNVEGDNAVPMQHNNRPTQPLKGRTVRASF
Description: stopped-flow CO2 hydration assay on hCA I

hCA II = biological target: T3, hCA II (Homo sapiens, UniProt P00918); settings: read-out: K I (nM)∗ / hCA II
T3 construct: gene CA2; cytosolic isoform; one molecule in the asymmetric unit
Description: stopped-flow CO2 hydration assay on hCA II

Ki (hCA XII) [nM] | Ki (hCA I) [nM] | Ki (hCA II) [nM] | SMILES
8.4 | 1940 | 9.8 | CC#CCOc1ccc(C=NS(N)(=O)=O)cc1 [compound 13, N-([4-(But-2-yn-1-yloxy)phenyl]methylidene)sulfuric Diamide]
6.6 | 4050 | 134 | COc1ccc(CNS(N)(=O)=O)cc1 [compound 12, N-(4-Methoxybenzyl)sulfuric Diamide]
6.6 | 1440 | 43.3 | Cc1cc(COc2ccc(CNS(N)(=O)=O)cc2)c2ccccc2n1 [compound 16, N-{4-[(2-Methylquinolin-4-yl)methoxy]benzyl}sulfuric Diamide]
8.1 | 1810 | 9.5 | CC#CCOc1ccc(CNS(N)(=O)=O)cc1 [compound 14, N-[4-(But-2-yn-1-yloxy)benzyl]sulfuric Diamide]
5.8 | 2180 | 74.1 | NS(=O)(=O)NCc1ccc(O)cc1 [compound 11, N-(4-Hydroxybenzyl)sulfuric Diamide]
6.5 | 1650 | 188 | Cc1cc(COc2ccc(C=NS(N)(=O)=O)cc2)c2ccccc2n1 [compound 15, N-({4-[(2-Methylquinolin-4-yl)methoxy]phenyl}methylidene)sulfuric Diamide]
